Measured values as given in a melting point compilation (Tetko et al.; mined from patent text by program, amines drawn as free bases though some values may be those of a salt).

SMILES | melting point
Clc1cc(Cl)c2nc[nH]c2n1 | 263 °C
COc1cccc2nc3c(c(N)c12)CCCC3 | 187 to 188 °C
NS(=O)(=O)c1ccc(CO)s1 | 70 to 71 °C
O=C(O)c1cc(-c2ccccc2)c2c(n1)OCCN(Cc1cc(C(F)(F)F)cc(C(F)(F)F)c1)C2=O | 119 to 123 °C
CC(C)OC(=O)Cn1c(=O)n(C)c(=O)n(-c2cc(N=c3sc(=S)n4n3CCCC4)c(F)cc2Cl)c1=O | 115 to 122 °C
CCOC(=O)CNc1ncccc1NC(=O)c1ccc(C)s1 | 112 to 115 °C
CC(C)(C)OC(=O)Nc1cc(N2CCC(OCCO)CC2)c(I)cc1[N+](=O)[O-] | 64 to 65 °C
CC(C)(C)OC(=O)N1CCC(OCc2ccccc2)C1CC(=O)Cn1cnc2cccnc2c1=O (centres undefined) | 229 °C
Cc1c(OCc2ccc(CC(C)C)cc2)ccc(C(=O)Nc2ccccc2OCCCC(=O)O)c1C | 143 °C
CC(=O)Oc1ccc(C(=O)Nc2cccc(OCc3cccnc3)c2)cc1C(C)(C)C | 58 to 62 °C
CCCCCCCCCCCCCCCCCCOCCOCCOC(=O)NCc1ccccn1 | 61 to 62 °C
COC(=O)c1cc(COS(C)(=O)=O)cc([N+](=O)[O-])c1 | 96 to 97 °C
N#Cc1nn(-c2c(Cl)cc(C(F)(F)F)cc2Cl)cc1C1CC(=O)C1(Cl)Cl (centres undefined) | 118 to 120 °C
COc1cc(-c2ccc3cnc(Nc4ccc(C5CCN(CC(N)=O)CC5)cc4)nn23)c(OC)nn1 | 249 to 251 °C
CC(=O)Nc1cc2c(cc1O)CCN(Cc1ccccc1)CC2c1ccccc1 (centres undefined) | 180 °C
CC(C)(O)COc1c(-c2ccc(S(N)(=O)=O)cc2)cnn(-c2ccc(F)c(F)c2)c1=O | 65 to 69 °C
COc1cc(Nc2c(C#N)cnc3cc(-n4cccc4)c(OC)cc23)c(Cl)cc1Cl | 229 to 230 °C
CCN(CC)C(=O)c1cc2ccccc2[nH]1 | 108 to 110 °C
CC1CCc2ccc(OCC(O)CNC3CCCCC3)cc2O1 (centres undefined) | 97 to 99 °C
COc1ccc(Sc2ccncc2)c(N)c1 | 93 to 94 °C
NC(=O)CNC(=O)c1cccc(-c2cccc3cc(COc4cc(Cl)cc(Cl)c4)sc23)c1 | 164 to 165 °C
O=c1ccc2cc([C@H](c3cccc(C(F)(F)F)c3)n3cncn3)ccc2[nH]1 | 176 °C
CC1=NC=C(c2ccc3c(c2)NC(=O)CO3)C(c2ccccc2)S1 (centres undefined) | 187 to 189 °C
COc1ccc(C2=C(C#N)C(c3cccc4nsnc34)c3c[nH]nc3N2)cc1 (centres undefined) | 238 °C
CC(C)c1ccc(NC(=O)OC(C)(C)C)c(C(=O)NCC2CCN(C(c3ccccc3)c3ccccc3)CC2)c1 | 88 to 90 °C

SMILES | melting point
COc1cc(Cl)nc(NC(=O)NS(=O)(=O)c2ccccc2-c2nnnn2C)n1 | 225 to 227 °C
COc1cc2c(cc1OC)C(C)(C)C(/C=C/C(=O)N1CCC(CCCC3CCN(C(=O)/C=C/C4=Cc5cc(OC)c(OC)cc5C4(C)C)CC3)CC1)=C2 | 192 to 194 °C
COc1cc(OCCBr)ccc1C=O | 78 to 79 °C
CC[C@H](CO)NC(=O)c1ccc(C(=O)N2CCN(c3ncccc3NC(C)C)CC2)nc1 | 85 to 88 °C
O=C(NO)c1ccc2c(c1)CN(C(=O)c1ccc3ncccc3c1)C2 | 208 to 210 °C
CCCCn1c(=O)n(O)c(=O)c2cc(F)c(N3CCCC3)nc21 | 153 to 155 °C
CC(C)(C)c1cc(C=Cc2ccccc2NC(=O)NCc2ccccn2)cc(C(C)(C)C)c1O | 207 to 210 °C
O=c1cc(Nc2cc([N+](=O)[O-])ccc2Cl)[nH]n1-c1c(Cl)cc(Cl)cc1Cl | 274 to 278 °C
O=C(NC(c1ccccc1)c1ccccc1)N1CCC(c2ccccc2)(c2ccccc2)CC1 | 232 to 234 °C
CCOC(=O)CC(=O)NNc1ncc(-c2ccccc2)nc1CC(C)C | 116 to 118 °C
CCCC(=O)Nc1c(C)c(C)c2c(c1C)C(c1ccc(C(C)C)cc1)C(C)(C)O2 (centres undefined) | 120 to 122 °C
CCOC(=O)c1ccccc1NC(=O)c1oc2nn(C(C)C)c(C)c2c1C | 155 to 158 °C
CC(C)(C)OC(=O)N1CCNC(=O)C1Cc1ccccc1 (centres undefined) | 152 to 154 °C
CCC1CN(c2nc(C)nc(NC)n2)c2ccccc21 (centres undefined) | 168 to 170 °C
FC(F)(F)c1ccc2nnc(-c3c(Cl)cccc3Cl)n2c1 | 104 to 105 °C
COc1cccc(/C=C/C2=CCN(Cc3nc4ccccc4[nH]3)CC2)c1 | 202 to 204 °C
C[C@H](O)Cn1c(=O)c(Oc2ccc(F)cc2F)cc2cnc(N[C@@H](C)CO)nc21 | 182 to 184 °C
COc1cc(-n2c(-c3cc(-c4cnc5[nH]ccc5c4)ccn3)cn(C)c2=O)ccc1Cl | 223 °C
O=c1[nH]c(=O)n(C2CC(Cl)C(CCl)O2)cc1C=CBr (centres undefined) | 184 °C
CN(C)c1ccc(-c2nc(N(C)C)nnc2-c2ccc(F)cc2)cc1 | 157 to 160 °C
CN(C#N)C(=O)CCCCC(=O)N(C)C#N | 86.1 to 87.8 °C
Nc1c(F)c(N2CCNCC2)cc2c1c(=O)c(C(=O)O)cn2C1COC1 | 244 to 246 °C
COc1ccc(C2=NN(C3CCN(C(=O)NC(C)(C)C)CC3)C(=O)[C@H]3CC=CC[C@@H]23)c2c1OC(C)(C)C2 (relative stereo) | 145 to 147 °C
CCCCc1nc2c(N)nc3ccccc3c2n1CCN1C(=N)NC2CSC(CCCCC(N)=O)C21 (centres undefined) | 95 to 96 °C
